Data reported in patent US10344060B2 (priority 2013, dated 2019).

Tests used:
Experiment in all cases: cell-based
hNav1.7 = hNav1.7 (Homo sapiens, UniProt Q15858); settings: read-out: IC50 (μM) Nav1.7
hNav1.5 = hNav1.5 (Homo sapiens, UniProt Q14524); settings: IonWorks Quattro; Table 6; read-out: IC50 (μM) Nav1.5
hNav1.4 = hNav1.4 (Homo sapiens, UniProt P35499); type: cell-based; settings: Table 6; for IC50: IonWorks Quattro, read-out: IC50 (μM) Nav1.4; for Nav1.4/Nav1.7: ratio of IonWorks Quattro IC50 values
hNav1.3 = hNav1.3 (Homo sapiens, UniProt Q9NY46); settings: IonWorks Quattro; Table 6; read-out: IC50 (μM) Nav1.3

Sequence of hNav1.4 (P35499 whole entry): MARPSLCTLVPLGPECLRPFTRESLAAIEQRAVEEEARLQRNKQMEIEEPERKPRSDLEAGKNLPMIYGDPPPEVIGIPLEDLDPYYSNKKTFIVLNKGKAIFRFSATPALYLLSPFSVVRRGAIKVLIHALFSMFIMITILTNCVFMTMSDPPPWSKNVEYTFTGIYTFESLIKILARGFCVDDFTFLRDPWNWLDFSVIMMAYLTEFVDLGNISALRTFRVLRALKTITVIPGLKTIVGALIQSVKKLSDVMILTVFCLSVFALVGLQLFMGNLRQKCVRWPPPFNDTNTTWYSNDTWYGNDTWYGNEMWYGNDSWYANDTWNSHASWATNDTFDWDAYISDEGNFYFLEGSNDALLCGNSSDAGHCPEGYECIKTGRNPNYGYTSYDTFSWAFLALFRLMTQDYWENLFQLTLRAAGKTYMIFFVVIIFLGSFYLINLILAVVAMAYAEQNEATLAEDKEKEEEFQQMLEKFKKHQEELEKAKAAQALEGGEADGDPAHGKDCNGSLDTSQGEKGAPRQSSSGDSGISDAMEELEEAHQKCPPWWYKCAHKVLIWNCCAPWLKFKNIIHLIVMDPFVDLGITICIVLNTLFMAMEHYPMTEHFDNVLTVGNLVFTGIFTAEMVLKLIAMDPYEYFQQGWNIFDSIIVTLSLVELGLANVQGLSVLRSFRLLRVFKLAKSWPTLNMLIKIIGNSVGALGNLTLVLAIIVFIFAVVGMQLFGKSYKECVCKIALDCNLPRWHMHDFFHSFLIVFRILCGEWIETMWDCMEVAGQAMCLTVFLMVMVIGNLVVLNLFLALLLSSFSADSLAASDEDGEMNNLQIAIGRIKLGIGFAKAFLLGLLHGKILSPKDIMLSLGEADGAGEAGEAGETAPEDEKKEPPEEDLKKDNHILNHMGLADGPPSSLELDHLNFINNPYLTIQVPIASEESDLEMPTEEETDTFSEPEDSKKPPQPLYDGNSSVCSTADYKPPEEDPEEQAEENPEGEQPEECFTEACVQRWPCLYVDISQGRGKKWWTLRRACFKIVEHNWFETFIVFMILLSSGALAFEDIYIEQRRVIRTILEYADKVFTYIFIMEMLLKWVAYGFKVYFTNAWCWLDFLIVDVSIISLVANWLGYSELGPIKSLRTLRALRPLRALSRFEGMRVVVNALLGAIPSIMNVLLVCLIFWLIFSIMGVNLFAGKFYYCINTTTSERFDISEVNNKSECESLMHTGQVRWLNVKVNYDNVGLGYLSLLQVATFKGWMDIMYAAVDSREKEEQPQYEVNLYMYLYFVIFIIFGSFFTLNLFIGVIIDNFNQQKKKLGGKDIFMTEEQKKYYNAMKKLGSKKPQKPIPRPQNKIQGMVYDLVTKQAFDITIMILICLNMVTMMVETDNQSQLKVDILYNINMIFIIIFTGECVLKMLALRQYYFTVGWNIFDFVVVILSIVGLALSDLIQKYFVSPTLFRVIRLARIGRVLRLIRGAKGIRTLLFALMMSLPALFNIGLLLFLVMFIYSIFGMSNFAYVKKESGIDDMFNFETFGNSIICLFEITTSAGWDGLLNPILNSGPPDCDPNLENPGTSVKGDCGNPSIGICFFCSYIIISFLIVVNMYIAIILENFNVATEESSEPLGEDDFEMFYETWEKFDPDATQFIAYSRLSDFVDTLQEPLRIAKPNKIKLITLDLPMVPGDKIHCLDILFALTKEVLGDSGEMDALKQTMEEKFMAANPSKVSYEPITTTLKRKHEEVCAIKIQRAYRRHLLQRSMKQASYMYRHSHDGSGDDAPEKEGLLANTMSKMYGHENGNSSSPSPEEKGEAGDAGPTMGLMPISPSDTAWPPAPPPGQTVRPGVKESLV
Sequence of hNav1.5 (Q14524 whole entry): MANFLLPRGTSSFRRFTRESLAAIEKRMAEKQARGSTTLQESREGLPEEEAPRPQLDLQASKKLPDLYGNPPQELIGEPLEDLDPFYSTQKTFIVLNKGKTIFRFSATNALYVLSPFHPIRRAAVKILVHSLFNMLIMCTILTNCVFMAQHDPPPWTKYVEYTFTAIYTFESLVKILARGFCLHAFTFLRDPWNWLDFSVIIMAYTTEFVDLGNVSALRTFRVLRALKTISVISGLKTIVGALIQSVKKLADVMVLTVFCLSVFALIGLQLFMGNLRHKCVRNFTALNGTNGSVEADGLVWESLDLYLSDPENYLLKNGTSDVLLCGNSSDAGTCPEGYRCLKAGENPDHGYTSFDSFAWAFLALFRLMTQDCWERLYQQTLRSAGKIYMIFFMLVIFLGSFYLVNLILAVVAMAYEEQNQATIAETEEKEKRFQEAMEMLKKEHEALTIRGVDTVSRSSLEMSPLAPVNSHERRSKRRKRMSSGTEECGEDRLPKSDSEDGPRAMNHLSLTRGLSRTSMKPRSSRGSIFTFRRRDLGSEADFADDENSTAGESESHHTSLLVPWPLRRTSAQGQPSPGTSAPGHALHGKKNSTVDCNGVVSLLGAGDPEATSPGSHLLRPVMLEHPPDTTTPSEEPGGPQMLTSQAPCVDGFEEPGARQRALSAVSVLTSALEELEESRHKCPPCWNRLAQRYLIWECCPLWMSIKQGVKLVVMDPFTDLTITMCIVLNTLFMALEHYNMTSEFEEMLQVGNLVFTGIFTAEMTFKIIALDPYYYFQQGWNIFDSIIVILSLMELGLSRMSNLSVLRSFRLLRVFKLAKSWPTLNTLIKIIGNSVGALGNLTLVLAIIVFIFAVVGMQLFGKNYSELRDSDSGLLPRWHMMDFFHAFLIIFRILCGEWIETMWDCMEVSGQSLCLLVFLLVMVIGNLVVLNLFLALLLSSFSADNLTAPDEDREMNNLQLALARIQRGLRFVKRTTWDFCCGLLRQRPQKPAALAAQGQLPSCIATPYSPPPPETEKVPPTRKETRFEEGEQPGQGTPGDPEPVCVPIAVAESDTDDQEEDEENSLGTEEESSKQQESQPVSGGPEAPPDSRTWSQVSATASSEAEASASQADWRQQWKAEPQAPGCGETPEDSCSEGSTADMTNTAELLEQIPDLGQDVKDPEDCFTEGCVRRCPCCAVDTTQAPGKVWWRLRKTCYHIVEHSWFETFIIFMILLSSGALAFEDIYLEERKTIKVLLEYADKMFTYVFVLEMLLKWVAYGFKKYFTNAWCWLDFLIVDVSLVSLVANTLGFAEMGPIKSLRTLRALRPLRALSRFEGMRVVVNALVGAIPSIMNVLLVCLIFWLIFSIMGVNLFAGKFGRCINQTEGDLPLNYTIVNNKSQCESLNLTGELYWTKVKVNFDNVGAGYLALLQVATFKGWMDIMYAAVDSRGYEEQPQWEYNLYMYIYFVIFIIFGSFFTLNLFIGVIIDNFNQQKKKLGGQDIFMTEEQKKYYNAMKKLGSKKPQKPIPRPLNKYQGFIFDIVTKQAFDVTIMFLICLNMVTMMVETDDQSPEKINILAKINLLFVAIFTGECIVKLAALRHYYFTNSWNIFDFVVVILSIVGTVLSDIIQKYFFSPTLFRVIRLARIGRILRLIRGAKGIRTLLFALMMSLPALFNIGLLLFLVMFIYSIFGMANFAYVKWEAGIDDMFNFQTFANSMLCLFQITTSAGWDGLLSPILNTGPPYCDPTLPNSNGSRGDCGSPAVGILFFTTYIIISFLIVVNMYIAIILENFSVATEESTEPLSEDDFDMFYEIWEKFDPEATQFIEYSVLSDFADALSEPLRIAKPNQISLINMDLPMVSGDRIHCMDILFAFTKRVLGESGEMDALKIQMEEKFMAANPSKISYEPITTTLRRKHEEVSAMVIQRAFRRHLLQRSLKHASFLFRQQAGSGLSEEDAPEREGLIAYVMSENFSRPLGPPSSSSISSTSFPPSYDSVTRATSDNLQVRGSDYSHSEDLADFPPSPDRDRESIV

SMILES | IC50 (hNav1.7) [µM] | IC50 (hNav1.5) [µM] | IC50 (hNav1.4) [µM] | Nav1.4/Nav1.7 (hNav1.4) | IC50 (hNav1.3) [µM]
CC[C@H](C)[C@H](NC(=O)[C@@H](NC(=O)[C@H](CCCCN)NC(=O)[C@H](CCCNC(=N)N)NC(=O)[C@@H]1CSSC[C@@H]2NC(=O)[C@H](C)NC(=O)[C@H](CCCNC(=N)N)NC(=O)[C@H](CCCNC(=N)N)NC(=O)[C@H](CO)NC(=O)[C@H](CC(=O)O)NC(=O)[C@@H]3CSSC[C@H](NC(=O)[C@H](CCCNC(=N)N)NC(=O)[C@H](CC(C)C)NC(=O)CNC(=O)[C@H](CCC(=O)O)NC(=O)[C@H](CSSC[C@H](NC(=O)[C@@H](N)Cc4ccc(O)cc4)C(=O)N[C@@H](CCC(N)=O)C(=O)N[C@@H](CCCCN)C(=O)N[C@@H](Cc4c[nH]c5ccccc45)C(=O)N[C@@H](CCSC)C(=O)N[C@@H](Cc4c[nH]c5ccccc45)C(=O)N[C@@H]([C@@H](C)O)C(=O)N3)NC2=O)C(=O)N[C@@H](CCCCN)C(=O)N[C@@H](CC(C)C)C(=O)N[C@@H](Cc2c[nH]c3ccccc23)C(=O)N1)[C@@H](C)CC)C(N)=O [compound 99] | 0.008 | 2.5 | 0.15 | 19 | 0.05
CC[C@H](C)[C@H](NC(=O)[C@@H](NC(=O)[C@H](CCCCN)NC(=O)[C@H](CCCNC(=N)N)NC(=O)[C@@H]1CSSC[C@@H]2NC(=O)[C@H](CCCNC(=N)N)NC(=O)[C@H](CCCNC(=N)N)NC(=O)[C@H](CCCCN)NC(=O)[C@H](CO)NC(=O)[C@H](CC(=O)O)NC(=O)[C@@H]3CSSC[C@H](NC(=O)[C@H](CCCNC(=N)N)NC(=O)[C@H](CC(C)C)NC(=O)CNC(=O)[C@H](CCC(=O)O)NC(=O)[C@H](CSSC[C@H](NC(=O)[C@@H](N)Cc4ccc(O)cc4)C(=O)N[C@@H](CCC(N)=O)C(=O)N[C@@H](CCCCN)C(=O)N[C@@H](Cc4c[nH]c5ccccc45)C(=O)N[C@@H](CCSC)C(=O)N[C@@H](Cc4c[nH]c5ccccc45)C(=O)N[C@@H]([C@@H](C)O)C(=O)N3)NC2=O)C(=O)N[C@@H](CCCCN)C(=O)N[C@@H](CC(C)C)C(=O)N[C@@H](Cc2c[nH]c3ccccc23)C(=O)N1)[C@@H](C)CC)C(N)=O [compound 100] | 0.008 | 1.4 | 0.08 | 11 | 0.04
CC[C@H](C)[C@H](NC(=O)[C@@H](NC(=O)[C@H](CCCCN)NC(=O)[C@H](CCCNC(=N)N)NC(=O)[C@@H]1CSSC[C@@H]2NC(=O)[C@H](C)NC(=O)[C@H](CCCNC(=N)N)NC(=O)[C@H](CCCCN)NC(=O)[C@H](CO)NC(=O)[C@H](CC(=O)O)NC(=O)[C@@H]3CSSC[C@H](NC(=O)[C@H](CCCNC(=N)N)NC(=O)[C@H](CC(C)C)NC(=O)CNC(=O)[C@H](CCCNC(=N)N)NC(=O)[C@H](CSSC[C@H](NC(=O)[C@@H](N)Cc4ccc(O)cc4)C(=O)N[C@@H](CCC(N)=O)C(=O)N[C@@H](CCCCN)C(=O)N[C@@H](Cc4c[nH]c5ccccc45)C(=O)N[C@@H](CCSC)C(=O)N[C@@H](Cc4c[nH]c5ccccc45)C(=O)N[C@@H]([C@@H](C)O)C(=O)N3)NC2=O)C(=O)N[C@@H](CCCCN)C(=O)N[C@@H](CC(C)C)C(=O)N[C@@H](Cc2c[nH]c3ccccc23)C(=O)N1)[C@@H](C)CC)C(N)=O [compound 101] | 0.014 | 0.95 | 0.06 | 4 | 0.04
